According to US20260285850A1, “SUBSTITUTED OXAZOLIDINONES AND IMIDAZOLINONES AS HERBICIDES” (FMC CORPORATION, priority 2023, published 2026):

Tests used:
Format in all cases: in vivo
[1] = test system: barnyardgrass (Echinochloa crus-galli); test: Test A preemergence soil spray, visual injury rating 0-100; conditions: 10 days
Method in brief: (§1)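 Visual injury ratings (0, no effect; 100, complete control) were assigned relative to untreated plants 10 days after treatment. Test chemicals, formulated with a surfactant-containing non-phytotoxic solvent, were applied in loam-sand soil either as a directed soil spray before emergence or to emerged plants, and plants were kept in a greenhouse.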

[2] = test system: blackgrass (Alopecurus myosuroides); test: as above; conditions: 10 days
Method in brief: as §1

[3] = test system: corn (Zea mays); test: as above; conditions: 10 days
Method in brief: as §1

[4] = test system: green foxtail (Setaria viridis); test: as above; conditions: 10 days
Method in brief: as §1

[5] = test system: kochia (Bassia scoparia); test: as above; conditions: 62 g ai/ha, 10 days, 0 = no effect, 100 = complete control
Method in brief: as §1

[6] = test system: oat, wild (wild oat, Avena fatua); test: as above; conditions: 10 days
Method in brief: as §1

[7] = test system: palmer (palmer amaranth, palmer pigweed, Amaranthus palmeri); test: as above; conditions: 10 days
Method in brief: as §1

[8] = test system: ragweed (common ragweed, Ambrosia artemisiifolia); test: as above; conditions: 10 days
Method in brief: as §1

[9] = test system: ryegrass, Italian (italian ryegrass, Lolium multiflorum); test: as above; conditions: 10 days
Method in brief: as §1

[10] = test system: soybean (Glycine max); test: as above; conditions: 10 days
Method in brief: as §1

[11] = test system: wheat (Triticum aestivum); test: as above; conditions: 10 days
Method in brief: as §1

[12] = test system: barnyardgrass (Echinochloa crus-galli); test: Test A postemergence application, visual injury rating 0-100
Method in brief: as §1

[13] = test system: blackgrass (Alopecurus myosuroides); test: as above
Method in brief: as §1

[14] = test system: corn (Zea mays); test: as above
Method in brief: as §1

[15] = test system: galium (catchweed bedstraw, Galium aparine); test: as above
Method in brief: as §1

[16] = test system: green foxtail (Setaria viridis); test: as above
Method in brief: as §1

[17] = test system: horseweed (Erigeron canadensis); test: as above
Method in brief: as §1

[18] = test system: kochia (Bassia scoparia); test: as above
Method in brief: as §1

[19] = test system: oat, wild (wild oat, Avena fatua); test: as above
Method in brief: as §1

[20] = test system: palmer (palmer amaranth, palmer pigweed, Amaranthus palmeri); test: as above
Method in brief: as §1

[21] = test system: ragweed (common ragweed, Ambrosia artemisiifolia); test: as above
Method in brief: as §1

[22] = test system: ryegrass, Italian (italian ryegrass, Lolium multiflorum); test: as above
Method in brief: as §1

[23] = test system: soybean (Glycine max); test: as above
Method in brief: as §1

[24] = test system: wheat (Triticum aestivum); test: as above
Method in brief: as §1

[25] = test system: barnyardgrass (Echinochloa crusgalli); test: Test B flooded paddy test, visual plant response rating 0-100; conditions: 250 g ai/ha, Flood, applied to paddy water, evaluated after 13 days
Method in brief: (§2)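 Paddy-water application: test compounds went directly into water flooded 3 cm above the soil surface, with plants at 2 leaves. After a 13-day greenhouse period, responses were judged by eye relative to controls; a dash marks an untested entry.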

[26] = test system: ducksalad (Heteranthera limosa); test: as above; conditions: 250 g ai/ha, Flood, applied to paddy water, evaluated after 13 days
Method in brief: as §2

[27] = test system: rice (Oryza sativa); test: as above; conditions: 250 g ai/ha, Flood, applied to paddy water, evaluated after 13 days
Method in brief: as §2

[28] = test system: sedge, umbrella (small-flower umbrella sedge, Cyperus difformis); test: as above; conditions: 250 g ai/ha, Flood, applied to paddy water, evaluated after 13 days
Method in brief: as §2

[29] = 62 g ai/ha, 0 = no effect, 100 = complete control
[30] = 62 g ai/ha, postemergence, 10 days, 0 = no effect, 100 = complete control
[31] = Postemergence, 16 g ai/ha, greenhouse 10 days, 0 no effect, 100 complete control

## COC(=O)C1C=CC(NC(=O)C2(C)CN(c3cc(C)cc(C)c3)C(=O)O2)C1 (stereo not drawn) [Compound 115]
[1]; 16 g ai/ha, 0 to 100 scale
  Barnyardgrass plant response rating: 30
[1]; [29]
  Barnyardgrass plant response rating (0-100): 100
[2]; 16 g ai/ha, 0 to 100 scale
  Blackgrass plant response rating: 20
[2]; [29]
  Blackgrass plant response rating (0-100): 60
[3]; 16 g ai/ha, 0 to 100 scale
  Corn plant response rating: 0
[3]; [29]
  Corn plant response rating (0-100): 20
[4]; 16 g ai/ha, 0 to 100 scale
  Foxtail, Green plant response rating: 0
[4]; [29]
  Foxtail, Green plant response rating (0-100): 30
[5]
  Kochia plant response rating (0-100): 100
[6]; 16 g ai/ha, 0 to 100 scale
  Oat, Wild plant response rating: 0
[6]; [29]
  Oat, Wild plant response rating (0-100): 40
[7]; 16 g ai/ha, 0 to 100 scale
  Pigweed, Palmer plant response rating: 20
[7]; [29]
  Pigweed, Palmer plant response rating (0-100): 90
[8]; 16 g ai/ha, 0 to 100 scale
  Ragweed plant response rating: 0
[8]; [29]
  Ragweed plant response rating (0-100): 0
[9]; 16 g ai/ha, 0 to 100 scale
  Ryegrass, Italian plant response rating: 10
[9]; [29]
  Ryegrass, Italian plant response rating (0-100): 30
[10]; 16 g ai/ha, 0 to 100 scale
  Soybean plant response rating: 0
[10]; [29]
  Soybean plant response rating (0-100): 0
[11]; 16 g ai/ha, 0 to 100 scale
  Wheat plant response rating: 0
[11]; [29]
  Wheat plant response rating (0-100): 30
[12]; [30]
  Barnyardgrass plant response rating (0-100): 100
[12]; [31]
  Barnyardgrass plant response rating (0 to 100 scale): 70
[13]; [30]
  Blackgrass plant response rating (0-100): 90
[13]; [31]
  Blackgrass plant response rating (0 to 100 scale): 70
[14]; [30]
  Corn plant response rating (0-100): 100
[14]; [31]
  Corn plant response rating (0 to 100 scale): 60
[15]; [30]
  Galium plant response rating (0-100): 70
[15]; [31]
  Galium plant response rating (0 to 100 scale): 60
[16]; [30]
  Foxtail, Green plant response rating (0-100): 30
[16]; [31]
  Foxtail, Green plant response rating (0 to 100 scale): 10
[17]; [30]
  Horseweed plant response rating (0-100): 0
[17]; [31]
  Horseweed plant response rating (0 to 100 scale): 10
[18]; [30]
  Kochia plant response rating (0-100): 70
[18]; [31]
  Kochia plant response rating (0 to 100 scale): 0
[19]; [30]
  Oat, Wild plant response rating (0-100): 90
[19]; [31]
  Oat, Wild plant response rating (0 to 100 scale): 80
[20]; [30]
  Pigweed, Palmer plant response rating (0-100): 10
[20]; [31]
  Pigweed, Palmer plant response rating (0 to 100 scale): 10
[21]; [30]
  Ragweed plant response rating (0-100): 30
[21]; [31]
  Ragweed plant response rating (0 to 100 scale): 0
[22]; [30]
  Ryegrass, Italian plant response rating (0-100): 70
[22]; [31]
  Ryegrass, Italian plant response rating (0 to 100 scale): 40
[23]; [30]
  Soybean plant response rating (0-100): 60
[23]; [31]
  Soybean plant response rating (0 to 100 scale): 40
[24]; [30]
  Wheat plant response rating (0-100): 80
[24]; [31]
  Wheat plant response rating (0 to 100 scale): 30
[25]
  Plant response rating, Barnyardgrass (0 to 100 scale, 0 is no effect and 100 is complete control): 65
[26]
  Plant response rating, Ducksalad (0 to 100 scale, 0 is no effect and 100 is complete control): 80
[27]
  Plant response rating, Rice (0 to 100 scale, 0 is no effect and 100 is complete control): 25
[28]
  Plant response rating, Sedge, Umbrella (0 to 100 scale, 0 is no effect and 100 is complete control): 0
